Assay results reported in patent US11083725B2 (priority 2014, dated 2021).

Tested on: NHBE cells
Experiment: Biolog metabolic array: substrate use by NHBE cells with or without CA09 infection
Type: cell-based, human
Details: for Substrate use, 590 nm absorbance normalized to zero hour, 1 hr: Biolog PMM2, 1 hr; for Substrate use, 590 nm absorbance normalized to zero hour, 5 hr: Biolog PMM2, 5 hr; for Substrate use, 590 nm absorbance normalized to zero hour, 7 hr: Biolog PMM2, 7 hr
[1] = Control (uninfected) NHBE cells
[2] = Virus (CA09-infected, MOI 1) NHBE cells
[3] = Virus: CA09-infected NHBE cells, MOI 1, Biolog PMM2
[4] = Virus (CA09-infected NHBE cells, MOI 1)
[5] = Virus (CA09, MOI 1) infected NHBE cells

SMILES: COC(=O)C(C)=O [Methyl Pyruvate]
- 590 nm absorbance normalized to zero hour (substrate use), 1 hr [1]: 1.32
- 590 nm absorbance normalized to zero hour (substrate use), 2 hr [1]: 1.57
- 590 nm absorbance normalized to zero hour (substrate use), 3 hr [1]: 1.25
- 590 nm absorbance normalized to zero hour (substrate use), 4 hr [1]: 1.36
- 590 nm absorbance normalized to zero hour (substrate use), 6 hr [1]: 0.77
- 590 nm absorbance normalized to zero hour (substrate use), 8 hr [1]: 1.65
- 590 nm absorbance normalized to zero hour (substrate use), 9 hr [1]: 1.74
- 590 nm absorbance normalized to zero hour (substrate use), 10 hr [1]: 1.79
- 590 nm absorbance normalized to zero hour (substrate use), 11 hr [1]: 1.76
- Substrate use, 590 nm absorbance normalized to zero hour, 1 hr [1]: 1.32
- Substrate use, 590 nm absorbance normalized to zero hour, 5 hr [1]: 1.59
- Substrate use, 590 nm absorbance normalized to zero hour, 7 hr [1]: 1.51
- 590 nm absorbance normalized to zero hour (substrate use), 1 hr [2]: 1.93
- 590 nm absorbance normalized to zero hour (substrate use), 2 hr [2]: 2.20
- 590 nm absorbance normalized to zero hour (substrate use), 3 hr [2]: 2.60
- 590 nm absorbance normalized to zero hour (substrate use), 4 hr [2]: 2.51
- 590 nm absorbance normalized to zero hour (substrate use), 5 hr [2]: 2.66
- 590 nm absorbance normalized to zero hour (substrate use), 6 hr [2]: 2.87
- 590 nm absorbance normalized to zero hour (substrate use), 7 hr [2]: 2.99
- 590 nm absorbance normalized to zero hour (substrate use), 8 hr [2]: 3.03
- 590 nm absorbance normalized to zero hour (substrate use), 9 hr [2]: 3.24
- 590 nm absorbance normalized to zero hour (substrate use), 10 hr [2]: 3.21
- 590 nm absorbance normalized to zero hour (substrate use), 11 hr [2]: 3.04
- 590 nm absorbance normalized to zero hour (substrate use), 1 hr [3]: 1.93
- 590 nm absorbance normalized to zero hour (substrate use), 2 hr [3]: 2.20
- 590 nm absorbance normalized to zero hour (substrate use), 3 hr [3]: 2.60
- 590 nm absorbance normalized to zero hour (substrate use), 4 hr [3]: 2.51
- 590 nm absorbance normalized to zero hour (substrate use), 5 hr [3]: 2.66
- 590 nm absorbance normalized to zero hour (substrate use), 6 hr [3]: 2.87
- 590 nm absorbance normalized to zero hour (substrate use), 7 hr [3]: 2.99
- 590 nm absorbance normalized to zero hour (substrate use), 8 hr [3]: 3.03
- 590 nm absorbance normalized to zero hour (substrate use), 9 hr [3]: 3.24
- 590 nm absorbance normalized to zero hour (substrate use), 10 hr [3]: 3.21
- 590 nm absorbance normalized to zero hour (substrate use), 11 hr [3]: 3.04

SMILES: O=C(CO)[C@@H](O)[C@H](O)[C@@H](O)CO [L-Sorbose]
- 590 nm absorbance normalized to zero hour (substrate use), 0 hr [1]: 1.00
- 590 nm absorbance normalized to zero hour (substrate use), 1 hr [1]: 1.57
- 590 nm absorbance normalized to zero hour (substrate use), 2 hr [1]: 2.05
- 590 nm absorbance normalized to zero hour (substrate use), 3 hr [1]: 2.28
- 590 nm absorbance normalized to zero hour (substrate use), 4 hr [1]: 2.38
- 590 nm absorbance normalized to zero hour (substrate use), 6 hr [1]: 4.12
- 590 nm absorbance normalized to zero hour (substrate use), 8 hr [1]: 2.81
- 590 nm absorbance normalized to zero hour (substrate use), 9 hr [1]: 2.80
- 590 nm absorbance normalized to zero hour (substrate use), 10 hr [1]: 3.02
- 590 nm absorbance normalized to zero hour (substrate use), 11 hr [1]: 2.98
- Substrate use, 590 nm absorbance normalized to zero hour, 0 hr (Control (uninfected) NHBE cells, Biolog PMM2, 0 hr): 1.00
- Substrate use, 590 nm absorbance normalized to zero hour, 1 hr [1]: 1.57
- Substrate use, 590 nm absorbance normalized to zero hour, 5 hr [1]: 2.79
- Substrate use, 590 nm absorbance normalized to zero hour, 7 hr [1]: 2.84
- 590 nm absorbance normalized to zero hour (substrate use), 0 hr [4]: 1.00
- 590 nm absorbance normalized to zero hour (substrate use), 1 hr [4]: 0.18
- 590 nm absorbance normalized to zero hour (substrate use), 2 hr [4]: 0.23
- 590 nm absorbance normalized to zero hour (substrate use), 3 hr [4]: 0.26
- 590 nm absorbance normalized to zero hour (substrate use), 4 hr [4]: 0.28
- 590 nm absorbance normalized to zero hour (substrate use), 5 hr [4]: 0.32
- 590 nm absorbance normalized to zero hour (substrate use), 6 hr [4]: 0.34
- 590 nm absorbance normalized to zero hour (substrate use), 7 hr [4]: 0.37
- 590 nm absorbance normalized to zero hour (substrate use), 8 hr [4]: 0.38
- 590 nm absorbance normalized to zero hour (substrate use), 9 hr [4]: 0.41
- 590 nm absorbance normalized to zero hour (substrate use), 10 hr [4]: 0.41
- 590 nm absorbance normalized to zero hour (substrate use), 11 hr [4]: 0.48
- 590 nm absorbance normalized to zero hour (substrate use), 0 hr [3]: 1.00
- 590 nm absorbance normalized to zero hour (substrate use), 1 hr [3]: 0.18
- 590 nm absorbance normalized to zero hour (substrate use), 2 hr [3]: 0.23
- 590 nm absorbance normalized to zero hour (substrate use), 3 hr [3]: 0.26
- 590 nm absorbance normalized to zero hour (substrate use), 4 hr [3]: 0.28
- 590 nm absorbance normalized to zero hour (substrate use), 5 hr [3]: 0.32
- 590 nm absorbance normalized to zero hour (substrate use), 6 hr [3]: 0.34
- 590 nm absorbance normalized to zero hour (substrate use), 7 hr [3]: 0.37
- 590 nm absorbance normalized to zero hour (substrate use), 8 hr [3]: 0.38
- 590 nm absorbance normalized to zero hour (substrate use), 9 hr [3]: 0.41
- 590 nm absorbance normalized to zero hour (substrate use), 10 hr [3]: 0.41
- 590 nm absorbance normalized to zero hour (substrate use), 11 hr [3]: 0.48

SMILES: OCC(O)CO [Glycerol]
- 590 nm absorbance normalized to zero hour (substrate use), 1 hr [1]: 1.36
- 590 nm absorbance normalized to zero hour (substrate use), 2 hr [1]: 1.42
- 590 nm absorbance normalized to zero hour (substrate use), 3 hr [1]: 1.19
- 590 nm absorbance normalized to zero hour (substrate use), 4 hr [1]: 1.18
- 590 nm absorbance normalized to zero hour (substrate use), 6 hr [1]: 0.68
- 590 nm absorbance normalized to zero hour (substrate use), 8 hr [1]: 1.04
- 590 nm absorbance normalized to zero hour (substrate use), 9 hr [1]: 1.08
- 590 nm absorbance normalized to zero hour (substrate use), 10 hr [1]: 1.04
- 590 nm absorbance normalized to zero hour (substrate use), 11 hr [1]: 1.08
- Substrate use, 590 nm absorbance normalized to zero hour, 1 hr [1]: 1.36
- Substrate use, 590 nm absorbance normalized to zero hour, 5 hr [1]: 1.27
- Substrate use, 590 nm absorbance normalized to zero hour, 7 hr [1]: 1.06
- Substrate use, 590 nm absorbance normalized to zero hour, 11 hr (Control (uninfected) NHBE cells, Biolog PMM2, 11 hr): 1.04
- Substrate use, 590 nm absorbance normalized to zero hour, 1 hr [5]: 1.04
- Substrate use, 590 nm absorbance normalized to zero hour, 2 hr (Virus (CA09, MOI 1) infected NHBE cells, Biolog PMM2, 2 hr): 1.04
- Substrate use, 590 nm absorbance normalized to zero hour, 3 hr (Virus (CA09, MOI 1) infected NHBE cells, Biolog PMM2, 3 hr): 1.04
- Substrate use, 590 nm absorbance normalized to zero hour, 4 hr (Virus (CA09, MOI 1) infected NHBE cells, Biolog PMM2, 4 hr): 1.04
- Substrate use, 590 nm absorbance normalized to zero hour, 5 hr [5]: 3.55
- Substrate use, 590 nm absorbance normalized to zero hour, 7 hr [5]: 3.91
- 590 nm absorbance normalized to zero hour (substrate use), 1 hr [2]: 2.05
- 590 nm absorbance normalized to zero hour (substrate use), 2 hr [2]: 2.67
- 590 nm absorbance normalized to zero hour (substrate use), 3 hr [2]: 3.09
- 590 nm absorbance normalized to zero hour (substrate use), 4 hr [2]: 3.24
- 590 nm absorbance normalized to zero hour (substrate use), 6 hr [2]: 3.71
- 590 nm absorbance normalized to zero hour (substrate use), 8 hr [2]: 4.11
- 590 nm absorbance normalized to zero hour (substrate use), 9 hr [2]: 4.51
- 590 nm absorbance normalized to zero hour (substrate use), 10 hr [2]: 4.63
- 590 nm absorbance normalized to zero hour (substrate use), 11 hr [2]: 5.09
